Source: US20250250559A1, “METHOD TO ANALYZE AND OPTIMIZE GENE EDITING MODULES AND DELIVERY APPROACHES” (Hoffmann-La Roche Inc., priority 2016, published 2025)
Several values for one entry are separate records, joined by “and”; a condition that tells them apart may be missing. Equal values may be shown once. Entries after “also recorded” stand apart in the source; their conditions may differ.

Legend:
Format in all cases: cell-based, human
DPH1 gene [1] = experiment: DT resistant colony count after DPH1 gene editing (homozygous gene inactivation); conditions: for # of DT resistant colonies (20,000 seeded cells) / # of DT resistant colonies (20,000 seeded cells) (unheaded second sub-column: mean): DPH1 (gRNA length), TF eff. = 31%; for # of DT resistant colonies (20,000 seeded cells): MCF7, individual samples A-D; for # of DT resistant colonies (mean of the samples): DPH1 assay (integr. vs. k.o.), 20,000 seeded cells; for # of DT resistant colonies (mean of the samples) / # of DT resistant colonies: TF eff. = 38%; for # of DT resistant colonies: DPH1 assay (integr. vs. k.o.), MCF7, 20,000 seeded cells, individual samples; for generation of DTr colonies: MCF7
Method: MCF7 cells (Brooks, et al. 1973) were originally obtained from ATCC (subsequently propagated in an in-house cell bank) and maintained in RPMI […] medium supplemented with 10% FCS, 2 mM L-Glutamine and penicillin/streptomycin at 37° C. and 85% humidity. For transfection of plasmids harboring gene-editing modules, 3,000,000 cells were seeded in a 10 cm diameter culture dish and cultivated at 37° C. and humidified 5% CO2. 24 h after seeding, cells were transfected with 20 μg total DNA using JetPEI (Polyplus) according to the manufacturer's protocol but with an N/P ratio of 6:1. Transfection efficiency was determined after 24 h by flow cytometry (FACS Calibur, BD biosciences) of cells that were transfected with a modified eGFP expression plasmid (Zhang, et al. 1996).
Plasmids encoding CRISPR/Cas9 gene-editing entities (i.e. knock-out and integration systems) against Dph1 (gRNA target sequence: […] (SEQ ID NO: 01) derived from RefSeq: NM_001383) and Dph2 (gRNA target sequence: […] (SEQ ID NO: 02) derived from RefSeq: NM_001039589, NM_001384), and scrambled control (gRNA sequence: […] (SEQ ID NO: 03)) were obtained from OriGene. This system comprises one plasmid expressing a ˜100 nt gRNA under control of a U6 promoter as well as Cas9 nuclease under control of a CMV promoter and a Donor plasmid with a promoter-less GFP/PM expression cassette flanked by homologous arms to the target gene (Dph1 or Dph2). Additional Dph1 gRNA sequence variants of different sizes (OriGene) […]
MCF7 cells which have all chromosomal copies of DPH1 or DPH2 inactivated are resistant to diphtheria toxin (Stahl, et al. 2015). Thus, occurrence and frequency of toxin resistant cells/colonies upon CRISPR/Cas inflicted gene inactivation provides a measure for efficiency of inactivation of all gene copies. Therefore, MCF/cells were transfected as described in Example 1 with (i) a GFP expression plasmid as transfection control, (ii) the CRISPR/Cas9 Dph1 or Dph2 knock-out/integration system and (iii) knock-out/integration entities containing a scrambled gRNA to determine Cas9 independent integration frequencies. After determination of transfection efficiency, cells were seeded in 6-well plates. For quantification of homozygous knock-out events by DT 20000 cells were seeded and for quantification of integration events by PM or both events 40000 cells were seeded. RPMI medium was exchanged by RPMI medium containing DT or PM or both toxins 3 days after cell seeding. Exchange of medium was repeated every 2-3 days until all dead cells were removed from the plates and actively growing colonies could be detected via microscopic inspection. Thereafter (between day 12 and day 14 after start of toxin exposure), cells were washed 3 times with PBS and subsequently stained with ice cold methylene blue (0.2% in 50% EtOH). Methylene blue solution was subsequently removed and the plates were carefully washed under running water. Finally, cell colonies were counted under the microscope with a 5 mm grid foil.
MCF7 cells which have all chromosomal copies of DPH1 inactivated are DT resistant. Thus, occurrence and frequency of DTr colonies upon ZFN inflicted gene inactivation and/or cassette integration provides a measure for efficacy of inactivation of all gene copies. The ZFN recognition sequence ([…], cleavage site, SEQ ID NO: 10) are derived from NM_001383.3 (DPH1-wt) and were obtained from Sigma Aldrich. A PAC integration cassette for this position was obtained from OriGene. MCF7 cells were transfected as described above with (i) a GFP expression plasmid, (ii) the plasmid encoding DPH1-targeting ZFN and (iii) the DPH1-targeting PAC-integration cassette. After determination of transfection efficiency, cells were seeded in 6-well plates. For quantification of homozygous knock-out events (DTr) 20,000 cells were seeded, 40,000 cells for quantification of integration events (PMr) or double resistances. […]

DPH1 gene [2] = experiment: as above; conditions: for # of DT resistant colonies (mean of the samples) / # of DT resistant colonies: TF eff. = 38%; for # of DT resistant colonies: DPH1 assay (integr. vs. k.o.), individual samples; for # of DT resistant colonies (40,000 seeded cells): DPH1 assay editing entities, MCF-7, individual replicates, TF eff. = 33%
DPH1 gene [3] = experiment: DT + PM double resistant colony count after DPH1 gene editing (integration with inactivation); conditions: for # of DT + PM resistant colonies (40,000 seeded cells) / # of DT + PM resistant colonies (40,000 seeded cells) (unheaded second sub-column: mean): DPH1 (gRNA length), TF eff. = 31%; for # of DT + PM resistant colonies (40,000 seeded cells) / # of PM + DT resistant colonies (40,000 seeded cells): MCF7, individual samples A-D; for # of PM + DT resistant colonies (40,000 seeded cells) / # of PM + DT resistant colonies (40,000 seeded cells) (unheaded second sub-column: mean): DPH1 assay (integr. vs. (integr. + k.o.)), TF eff. = 67*%; for # of DT + PM resistant colonies (80,000 seeded cells): DPH1 assay editing entities, MCF-7, individual replicates, TF eff. = 33%
Method: MCF7 cells (Brooks, et al. 1973) were originally obtained from ATCC (subsequently propagated in an in-house cell bank) and maintained in RPMI 1641 medium supplemented with 10% FCS, 2 mM L-Glutamine and penicillin/streptomycin at 37° C. and 85% humidity. For transfection of plasmids harboring gene-editing modules, 3,000,000 cells were seeded in a 10 cm diameter culture dish and cultivated at 37° C. and humidified 5% CO2. 24 h after seeding, cells were transfected with 20 μg total DNA using JetPEI (Polyplus) according to the manufacturer's protocol but with an N/P ratio of 6:1. Transfection efficiency was determined after 24 h by flow cytometry (FACS Calibur, BD biosciences) of cells that were transfected with a modified eGFP expression plasmid (Zhang, et al. 1996).
CRISPR/Cas module for targeted integration contains a puromycin (PM) resistance gene expression cassette without promoter to avoid transient expression. Thus, detection of integration of recombinant sequences into the genome was detected by determining sensitivity of cells towards PM. A concentration of 500 ng/μL PM (which quantitatively eliminates wildtype MCF7 cells) was applied to select MCF7 cells with stably integrated expression cassettes. PM-resistant colonies selected with the same procedure as described above for the DT selection and visualized and quantified (between 12 and 14 days after start of selection) in the same manner as described above for toxin resistant colonies. Number of PM resistant colonies obtained with non-target guide sequences (scrambled gRNA, FIG. 1) reflect the nonspecific integration background. Increase in colonies (above nonspecific background) obtained with target-gene gRNAs which are PM-resistant but toxin sensitive reflect integration into just one target allele, leaving the other dph1 or dph2 allele unaffected. PM resistant colonies that are also DT resistant have the expression cassette integrated into at least target allele and the other allele either inactivated or inactivated accompanied by yet another integration event.

[4] = DPH1 assay (integr. vs. k.o.), 10,000 seeded cells
[5] = DPH1 assay (integr. vs. k.o.), 40,000 seeded cells
[6] = listed as 20 mer Dph1 CRISPR Cas9 gRNA

| Substance | # of DT resistant colonies (20,000 seeded cells) (DPH1 gene [1]) | # of DT resistant colonies (20,000 seeded cells) (unheaded second sub-column: mean) (DPH1 gene [1]) | # of DT resistant colonies (mean of the samples) (DPH1 gene [1]) | # of DT resistant colonies (DPH1 gene [1]) | # of DT resistant colonies (mean of the samples) (DPH1 gene [2]; [4]) | # of DT resistant colonies (mean of the samples) (DPH1 gene [2]; [5]) | # of DT resistant colonies (DPH1 gene [2]; MCF7, 40,000 seeded cells) | # of DT resistant colonies (40,000 seeded cells) (DPH1 gene [2]) | # of DT + PM resistant colonies (40,000 seeded cells) (DPH1 gene [3]) | # of DT + PM resistant colonies (40,000 seeded cells) (unheaded second sub-column: mean) (DPH1 gene [3]) | # of PM + DT resistant colonies (40,000 seeded cells) (DPH1 gene [3]) | # of PM + DT resistant colonies (40,000 seeded cells) (unheaded second sub-column: mean) (DPH1 gene [3]) | # of DT + PM resistant colonies (80,000 seeded cells) (DPH1 gene [3]) | also measured |
| --- | --- | --- | --- | --- | --- | --- | --- | --- | --- | --- | --- | --- | --- | --- |
| 20 mer SpCas9 scRNA: Scrambled control gRNA GCACTACCAGAGCTAACTCA (SEQ ID NO: 03) with SpCas9 and donor plasmid [reference compound] | 0 | 0 | 0 | 0 | 0 | 0 | 0 | 0 | 0 | 0 | 0 | 0 | 0 | generation of DTr colonies (DPH1 gene [1]): did not generate any DTr colony; generation of DTr colonies (DPH1 gene [1]; listed as scrambled guides): did not generate any DT-resistant colony; # of DT resistant colonies (DPH1 gene [2]; MCF7, 10,000 seeded cells): 0 |
| 20 mer SpCas9 DPH1 gRNA: Plasmids encoding SpCas9 and Dph1 gRNA (target CAGGGCGGCCGAGACGGCCC, SEQ ID NO: 01) plus PAC donor plasmid, OriGene | 417 and 406 and 409 and 404 | 409 | 472 | 364 and 545 and 543 and 435 | 218 | 947 | 995 and 942 and 899 and 950 | 476 and 492 and 468 and 472 | 6 and 5 and 7 (2×) | 6 | 15 and 13 and 11 and 12 | 13 | 5 and 4 and 3 | efficiency relative to ZFN-editing (gene inactivation and integration) (DPH1 gene [1]): twice as efficient; efficiency relative to engineered high fidelity CRISPR/Cas9 (DPH1 gene [1]): 5 fold; # of DT resistant colonies (20,000 seeded cells) (DPH1 gene [1]; [6]): 417 and 406 and 409 and 404; # of DT resistant colonies (DPH1 gene [1]; listed as CRISPR Cas9 Dph1 gRNA): 364 and 545 and 543 and 435; DPH1 inactivation efficacy in dependence on gRNA length (DPH1 gene [1]; DTr colonies): maximum DPH1 inactivation efficacy; also recorded: maximal DPH1 gene inactivation efficiency; frequency of complete inactivation of the DPH1 gene (all alleles) (DPH1 gene [1]; MCF7, FIG. 5A): ~6 % of all transfected cells; efficacy of inactivation of both DPH1 alleles (DTr) over integration of the PAC expression cassette (PMr) (DPH1 gene [1]; MCF7, FIG. 6): 30-50 fold; frequency of complete inactivation of the DPH1 gene (all alleles) (DPH1 gene [1]; MCF7, considering transfection efficiencies of 40%): 2.5 % of all cells; # of DT resistant colonies (DPH1 gene [2]; MCF7, 10,000 seeded cells, listed as CRISPR Cas9 Dph1 gRNA): 201 and 224 and 219; # of DT resistant colonies (DPH1 gene [2]; MCF7, 40,000 seeded cells, listed as CRISPR Cas9 Dph1 gRNA): 995 and 942 and 899 and 950; # of DT + PM resistant colonies (40,000 seeded cells) (DPH1 gene [3]; [6]): 6 and 5 and 7 (2×); # of PM + DT resistant colonies (40,000 seeded cells) (DPH1 gene [3]; listed as Dph1 CRISPR Cas9 gRNA): 15 and 13 and 11 and 12 |
